A short description of assay [1]: DRUGMATRIX: ATPase, Na+/K+ enzyme inhibition (substrate: ATP). Particulars: Not Active = under 50% inhibition at 10 µM. It is filed as tissue-based, Sus scrofa, Heart.
The target of assay [2] is T1, Neuropeptide Y receptor type 1 (Homo sapiens, UniProt P25929). Further: in other assays of this panel Not Active means under 50% inhibition at 10 µM.
T1 sequence (P25929 whole entry): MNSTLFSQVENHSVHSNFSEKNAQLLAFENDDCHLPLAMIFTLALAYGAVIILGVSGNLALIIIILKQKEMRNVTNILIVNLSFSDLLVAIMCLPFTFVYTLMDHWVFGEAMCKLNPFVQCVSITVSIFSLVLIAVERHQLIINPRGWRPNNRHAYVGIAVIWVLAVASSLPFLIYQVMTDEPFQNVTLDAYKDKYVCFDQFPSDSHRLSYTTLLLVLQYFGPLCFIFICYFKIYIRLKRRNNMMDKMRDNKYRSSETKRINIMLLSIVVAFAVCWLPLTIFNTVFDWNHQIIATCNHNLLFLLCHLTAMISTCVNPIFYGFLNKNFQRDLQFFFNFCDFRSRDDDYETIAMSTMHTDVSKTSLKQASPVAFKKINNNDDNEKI
It is filed as cell membranes, Membrane. To be noted: sk-n-mc.

The target of assay [3] is Histamine H2 receptor (Homo sapiens, UniProt P25021). It is filed as cell membranes, CHO-K1, Membrane. To be noted: for IC50: cho-k1. On all read-outs here: in other assays of this panel Not Active means under 50% inhibition at 10 µM.
Assay [4] deals with Mitogen-activated protein kinase 14 (Homo sapiens, UniProt Q16539). Further details: species or system Escherichia coli.
Assay [5] deals with T2, Receptor-type tyrosine-protein phosphatase C (Homo sapiens, UniProt P08575).
T2 sequence (P08575 whole entry): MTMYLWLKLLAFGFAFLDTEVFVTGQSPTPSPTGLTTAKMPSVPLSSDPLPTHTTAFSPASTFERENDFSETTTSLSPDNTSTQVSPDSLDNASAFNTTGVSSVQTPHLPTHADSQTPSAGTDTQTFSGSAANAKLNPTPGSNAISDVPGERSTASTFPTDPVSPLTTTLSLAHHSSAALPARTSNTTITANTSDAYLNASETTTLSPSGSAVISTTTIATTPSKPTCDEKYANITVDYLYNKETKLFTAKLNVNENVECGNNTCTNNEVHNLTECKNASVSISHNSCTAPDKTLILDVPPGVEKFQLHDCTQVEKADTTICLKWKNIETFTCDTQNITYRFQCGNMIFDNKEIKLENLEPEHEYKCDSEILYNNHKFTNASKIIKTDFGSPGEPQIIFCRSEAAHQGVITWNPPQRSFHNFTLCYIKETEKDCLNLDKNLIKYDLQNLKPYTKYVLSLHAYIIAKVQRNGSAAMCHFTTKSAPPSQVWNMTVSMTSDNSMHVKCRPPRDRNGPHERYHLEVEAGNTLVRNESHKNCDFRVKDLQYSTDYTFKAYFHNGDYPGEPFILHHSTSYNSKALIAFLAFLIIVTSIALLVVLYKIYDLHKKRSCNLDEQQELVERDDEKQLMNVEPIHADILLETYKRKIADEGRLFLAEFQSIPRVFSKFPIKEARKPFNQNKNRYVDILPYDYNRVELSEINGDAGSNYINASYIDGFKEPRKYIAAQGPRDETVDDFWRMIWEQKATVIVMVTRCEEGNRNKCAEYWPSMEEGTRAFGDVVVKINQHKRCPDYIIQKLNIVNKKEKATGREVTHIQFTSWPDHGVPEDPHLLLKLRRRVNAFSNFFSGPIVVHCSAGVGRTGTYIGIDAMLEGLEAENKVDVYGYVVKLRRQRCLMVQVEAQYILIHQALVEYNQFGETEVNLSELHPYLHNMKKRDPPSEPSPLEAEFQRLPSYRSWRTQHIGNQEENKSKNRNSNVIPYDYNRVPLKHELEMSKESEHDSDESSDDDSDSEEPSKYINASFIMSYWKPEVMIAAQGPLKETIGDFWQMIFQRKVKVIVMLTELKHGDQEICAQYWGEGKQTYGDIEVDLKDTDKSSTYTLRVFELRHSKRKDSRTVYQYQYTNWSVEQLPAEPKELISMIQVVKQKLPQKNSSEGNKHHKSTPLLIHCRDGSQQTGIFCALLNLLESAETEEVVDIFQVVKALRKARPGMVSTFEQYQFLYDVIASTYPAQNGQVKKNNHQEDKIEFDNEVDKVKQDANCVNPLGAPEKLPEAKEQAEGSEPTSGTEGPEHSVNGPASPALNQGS
Further details: species or system Escherichia coli.

The target in assay [6] is T3, Nitric oxide synthase, inducible (Mus musculus, UniProt P29477).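 Further: inhibition of iNOS enzyme activity measured with L-arginine as substrate; in other assays of this panel Not Active means under 50% inhibition at 10 µM.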
T3 sequence (P29477 whole entry): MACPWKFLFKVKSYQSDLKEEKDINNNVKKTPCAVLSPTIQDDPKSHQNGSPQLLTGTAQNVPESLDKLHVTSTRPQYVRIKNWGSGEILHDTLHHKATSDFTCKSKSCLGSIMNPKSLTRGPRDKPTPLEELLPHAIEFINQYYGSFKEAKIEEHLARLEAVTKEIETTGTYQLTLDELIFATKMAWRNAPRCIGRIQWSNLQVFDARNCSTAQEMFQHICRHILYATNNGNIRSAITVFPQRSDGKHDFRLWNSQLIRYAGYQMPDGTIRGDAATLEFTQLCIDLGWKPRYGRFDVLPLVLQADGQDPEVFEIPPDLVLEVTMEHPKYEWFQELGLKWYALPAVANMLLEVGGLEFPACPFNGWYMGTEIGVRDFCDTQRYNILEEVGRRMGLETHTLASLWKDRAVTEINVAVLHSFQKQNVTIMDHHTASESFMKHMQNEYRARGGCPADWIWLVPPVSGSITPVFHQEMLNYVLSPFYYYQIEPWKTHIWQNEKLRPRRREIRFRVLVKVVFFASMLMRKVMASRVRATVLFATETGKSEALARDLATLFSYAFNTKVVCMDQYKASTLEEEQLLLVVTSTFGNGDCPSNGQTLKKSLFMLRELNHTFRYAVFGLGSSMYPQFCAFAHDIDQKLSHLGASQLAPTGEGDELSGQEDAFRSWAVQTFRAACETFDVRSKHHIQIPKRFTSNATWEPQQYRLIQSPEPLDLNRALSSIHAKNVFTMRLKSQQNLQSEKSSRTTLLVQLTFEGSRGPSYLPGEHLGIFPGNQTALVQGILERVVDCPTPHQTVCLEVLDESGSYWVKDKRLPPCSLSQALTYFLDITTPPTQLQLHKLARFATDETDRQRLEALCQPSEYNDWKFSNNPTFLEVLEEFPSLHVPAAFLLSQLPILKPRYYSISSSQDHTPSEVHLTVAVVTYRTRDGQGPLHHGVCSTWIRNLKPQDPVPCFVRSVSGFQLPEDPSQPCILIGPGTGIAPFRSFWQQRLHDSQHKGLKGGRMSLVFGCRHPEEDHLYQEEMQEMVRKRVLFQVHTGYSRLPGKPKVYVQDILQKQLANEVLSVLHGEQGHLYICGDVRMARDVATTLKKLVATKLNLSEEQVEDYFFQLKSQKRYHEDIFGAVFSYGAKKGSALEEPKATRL
Also on record: species or system Escherichia coli.

pIC50, pKi: −log10 of the molar value.

Chain of Histamine H2 receptor (P25021 whole entry): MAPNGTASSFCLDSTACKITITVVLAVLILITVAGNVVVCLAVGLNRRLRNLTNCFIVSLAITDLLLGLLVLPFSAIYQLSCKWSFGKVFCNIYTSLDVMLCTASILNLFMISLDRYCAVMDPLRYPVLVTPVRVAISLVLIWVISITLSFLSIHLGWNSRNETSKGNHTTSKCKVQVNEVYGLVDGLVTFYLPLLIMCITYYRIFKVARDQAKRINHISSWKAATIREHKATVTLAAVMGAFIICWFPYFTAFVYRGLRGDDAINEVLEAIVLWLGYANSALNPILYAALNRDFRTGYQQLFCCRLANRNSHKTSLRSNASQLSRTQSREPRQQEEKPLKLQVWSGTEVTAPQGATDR
Chain of Mitogen-activated protein kinase 14 (Q16539 whole entry): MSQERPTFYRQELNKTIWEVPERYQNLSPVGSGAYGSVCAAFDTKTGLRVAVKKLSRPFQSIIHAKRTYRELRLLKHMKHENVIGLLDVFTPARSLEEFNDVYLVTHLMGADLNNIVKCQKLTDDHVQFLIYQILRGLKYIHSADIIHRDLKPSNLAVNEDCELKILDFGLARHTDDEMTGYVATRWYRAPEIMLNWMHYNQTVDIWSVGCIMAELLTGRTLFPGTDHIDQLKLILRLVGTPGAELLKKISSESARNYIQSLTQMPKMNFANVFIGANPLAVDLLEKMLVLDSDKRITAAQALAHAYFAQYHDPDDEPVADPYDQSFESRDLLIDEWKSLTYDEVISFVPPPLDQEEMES

Take `CCN(CC)N=O` [N-NITROSODIETHYLAMINE]: the IC50 result in assay [1], in assay [2], in assay [3], in assay [4], in assay [5] and in assay [6] was “Not Active” in each case. Besides, in assay [1], the Ki entry is “Not Active”.
For the compound `Cc1ccc(S(=O)(=O)NC(=O)NN2CCCCCC2)cc1` [TOLAZAMIDE], the IC50 result in assay [1], in assay [2], in assay [3], in assay [4], in assay [5] and in assay [6] was “Not Active” in each case. Besides, the Ki result in assay [1] was “Not Active”.
As for `CC(O)C(=O)O` (stereo not drawn) [LACTIC ACID], the IC50 result in assay [1], in assay [2], in assay [3], in assay [4], in assay [5] and in assay [6] was “Not Active” each time. In assay [1], the Ki entry is reported as “Not Active”.
As to `CS(=O)(=O)c1ccc(C2=C(c3ccccc3)C(=O)OC2)cc1` [ROFECOXIB], the IC50 entry in assay [1], in assay [2], in assay [3], in assay [4], in assay [5] and in assay [6] was “Not Active” in each case. In addition, the Ki entry in assay [1] was “Not Active”.
Take `CCOC(=O)C1=C(C)NC(C)=C(C(=O)OCC)C1c1ccccc1/C=C/C(=O)OC(C)(C)C` [LACIDIPINE]: the IC50 result in assay [1], in assay [2], in assay [3], in assay [4], in assay [5] and in assay [6] was “Not Active” each time. Also, the Ki entry in assay [1] is “Not Active”.
With `CC(N)C12CC3CC(CC(C3)C1)C2` (stereo not drawn) [RIMANTADINE], the IC50 result in assay [1], in assay [2], in assay [3], in assay [4], in assay [5] and in assay [6] was “Not Active” each time. For the same compound, the Ki entry in assay [1] is given as “Not Active”.
For `CC(Cl)(Cl)Cl` [TRICHLOROETHANE], the IC50 entry in assay [1], in assay [2], in assay [3], in assay [4], in assay [5] and in assay [6] was “Not Active” each time. The Ki result in assay [1] is “Not Active”.
Consider `O=C(O)c1cc(/N=N/c2ccc(S(=O)(=O)Nc3ccccn3)cc2)ccc1O` [SULFASALAZINE], for which the IC50 entry in assay [1], in assay [2], in assay [3], in assay [4], in assay [5] and in assay [6] was “Not Active” throughout. For the same compound, the Ki entry in assay [1] is reported as “Not Active”.
With `Cc1cccc(C)c1NC(=O)C(C)N` (stereo not drawn) [TOCAINIDE], the IC50 entry in assay [1], in assay [2], in assay [3], in assay [4], in assay [5] and in assay [6] was “Not Active” in each case. Further, in assay [1], the Ki result is “Not Active”.
Regarding `CO[C@@]12[C@H](COC(N)=O)C3=C(C(=O)C(C)=C(N)C3=O)N1C[C@@H]1N[C@@H]12` [MITOMYCIN], the IC50 entry in assay [1], in assay [2], in assay [3], in assay [4], in assay [5] and in assay [6] was “Not Active” in each case. Also, the Ki result in assay [1] is recorded as “Not Active”.
Regarding `Nc1nc(N)c2nc(-c3ccccc3)c(N)nc2n1`, the IC50 entry in assay [1], in assay [2], in assay [3], in assay [4], in assay [5] and in assay [6] was “Not Active” each time. For the same compound, the Ki entry in assay [1] is on record as “Not Active”.
For the compound `CC1=C(/C=C/C(C)=C/C=C/C(C)=C/C(=O)O)C(C)(C)CCC1` [TRETINOIN], the IC50 result in assay [1], in assay [2], in assay [3], in assay [4], in assay [5] and in assay [6] was “Not Active” throughout. Besides, the Ki result in assay [1] was “Not Active”.
Regarding `CC[C@@]1(O)C(=O)OCc2c1cc1n(c2=O)Cc2cc3c(CN(C)C)c(O)ccc3nc2-1` [TOPOTECAN], the IC50 entry in assay [1], in assay [2], in assay [3], in assay [4], in assay [5] and in assay [6] was “Not Active” in each case. In assay [1], the Ki result is listed as “Not Active”.
As for `Cc1ccc(Cl)c(Nc2ccccc2C(=O)O)c1Cl` [MECLOFENAMIC ACID], the IC50 entry in assay [1], in assay [2], in assay [3], in assay [4], in assay [5] and in assay [6] was “Not Active” in each case. The Ki result in assay [1] is listed as “Not Active”.
As for `CCOc1cc(N)c(Cl)cc1C(=O)NCC1CN(Cc2ccc(F)cc2)CCO1` (stereo not drawn) [MOSAPRIDE], the IC50 entry in assay [1], in assay [2], in assay [3], in assay [4], in assay [5] and in assay [6] was “Not Active” throughout. Besides, in assay [1], the Ki result is “Not Active”.
For orientation: pIC50 means the IC50 on a negative log10 scale, so that one unit is a factor of ten. The pKi is −log10 of the Ki, conventionally taken in molar units. For the compound `CN1C[C@H](CNC(=O)OCc2ccccc2)C[C@@H]2c3cccc4c3c(cn4C)C[C@H]21` [METERGOLINE], the IC50 entry in assay [1], in assay [2], in assay [4], in assay [5] and in assay [6] was “Not Active” in each case. In addition, in assay [1], the Ki entry was “Not Active”. In assay [3] (read-out: IC50), the pIC50 is 6.01. In addition, the pKi in assay [3] (read-out: Ki) is 6.02.

The record behind these values is ChEMBL document CHEMBL1909046, “DrugMatrix in vitro pharmacology data”.
